Measured values: US4853412A, “N-[[6-methoxy-5-(trifluoromethyl)-1-naphthalenyl]-[substituted imino]methyl]-n-methylglycines” (American Home Products Corporation, priority 1987, dated 1989)
Values belong to the compound of their own block, whether it stands above or below them.

Experiments:
[1] = system: sciatic nerves of rats fed galactose; test: galactosemic rats: lowering of galactitol (dulcitol) accumulation in the sciatic nerve; type: in vivo, rat (Sprague-Dawley); conditions: for % lowering dulcitol accumulation in vivo, N (sciatic nerve): four days, vs untreated galactosemic rats
Text: (§1) The aldose reductase inhibiting property of the compounds of this invention and the utilization of the compounds in preventing, diminishing and alleviating diabetic complications by lowering polyols accumulation are demonstrable in experiments using galactosemic rats, see Dvornik et al, Science, 182, 1146 (1973). Such experiments are exemplified hereinbelow after the listing of the following general comments pertaining to these experiments:
(§2) (a) Four or more groups of six male rats, 50-70 g, Sprague-Dawley strain, were used. The first group, the control group, was fed a mixture of laboratory chow (rodent Laboratory Chow, Purina) and glucose at 20% (w/w %) concentration. The untreated galactosemic group and the drug-treated groups were fed a similar diet in which galactose is substituted for glucose. The test compound was either admixed to the diet or administered by gavage. In experiments involving compound administration in the diet, the average dose administered was calculated from the actual food intake of the animals in each group. The concentration of galactose in the diet of the treated groups was the same as that for the untreated galactosemic group.
(§3) (b) After four days, the animals were killed by decapitation. The eyeballs were removed and punctured with a razor blade; the freed lenses were rolled gently on filter paper and weighed. The sciatic nerves were dissected as completely as possible and weighed. Both tissues when frozen can be kept up to two weeks before being analyzed for galactitol.
(§4) (c) The polyol determination was performed by a modification of the procedure of M. Kraml and L. Cosyns, Clin. Biochem., 2,373 (1969). Only two minor reagent changes were made: (a) The rinsing mixture was an aqueous 5% (w/v) trichloroacetic acid solution and (b) the stock solution was prepared by dissolving 25 mg of dulcitol in 100 mL of an aqueous trichloroacetic acid solution. [N.B.: For each experiment the average value found in the tissue from rats fed the glucose diet was subtracted from the individual values found in the corresponding tissue in galactose-fed rats to obtain the amount of polyol accumulated.] The aldose reductase inhibiting effects of the compounds of formula (I) were also tested by employing an in vitro testing procedure similar to that described by S. Hayman and J. H. Kinoshita, J. Biol. Chem., 240, 877 (1965). In the present case the procedure of Hayman and Kinoshita was modified in that the final chromatography step was omitted in the preparation of the enzyme from bovine lens.
(§5) The figures under L and N represent the percentage decrease of galactitol accumulation in the tissues of the lens and sciatic nerve, respectively, for treated rats as compared to untreated rats.

aldose reductase = target: T1, aldose reductase (Bos taurus, UniProt P16116); test: in vitro inhibition of aldose reductase from bovine lens (modified Hayman and Kinoshita procedure); type: biochemical; conditions: 10^-7 M
T1 construct: preparation of the enzyme from bovine lens; from tissue; host or cells: bovine lens
Procedure: Only two minor reagent changes were made: (a) The rinsing mixture was an aqueous 5% (w/v) trichloroacetic acid solution and (b) the stock solution was prepared by dissolving 25 mg of dulcitol in 100 mL of an aqueous trichloroacetic acid solution. [N.B.: For each experiment the average value found in the tissue from rats fed the glucose diet was subtracted from the individual values found in the corresponding tissue in galactose-fed rats to obtain the amount of polyol accumulated.] […] In the present case the procedure of Hayman and Kinoshita was modified in that the final chromatography step was omitted in the preparation of the enzyme from bovine lens.

[2] = system: lenses of rats fed galactose; test: galactosemic rats: lowering of galactitol (dulcitol) accumulation in the lens; type: in vivo, rat (Sprague-Dawley); conditions: four days, vs untreated galactosemic rats
Text: as §1, §2, §3, §4, §5

inhibition at 0.1 µM (aldose reductase): 5%
SMILES: COc1ccc2c(C(=NS(=O)(=O)c3ccc(Br)cc3)N(C)CC(=O)O)cccc2c1C(F)(F)F [Example 6, N-[[[(4-Bromophenyl)sulfonyl]imino][6-methoxy-5-(trifluoromethyl)-1-naphthalenyl]methyl]-N-methylglycine]
% lowering dulcitol accumulation in vivo, N (sciatic nerve) ([1]; 55 mg/kg/day p.o.): 0%
% lowering dulcitol accumulation in vivo, L (lens) ([2]; 55 mg/kg/day p.o.): 0%

inhibition at 0.1 µM (aldose reductase): 80%
SMILES: COc1ccc2c(C(=NC#N)N(C)CC(=O)O)cccc2c1C(F)(F)F [Example 4, N-[(Cyanoimino)[6-methoxy-5-(trifluoromethyl)-1-naphthalenyl]methyl]-N-methylglycine]
% lowering dulcitol accumulation in vivo, N (sciatic nerve) ([1]; 26 mg/kg/day p.o.): 30%
% lowering dulcitol accumulation in vivo, N (sciatic nerve) ([1]; 100 mg/kg/day p.o.): 61%
lowering of polyol accumulation compared with tolrestat (in words) ([1]; 100 mg/kg/day vs tolrestat at 6.4 mg/kg/day): comparable results
% lowering dulcitol accumulation in vivo, L (lens) ([2]; 26 mg/kg/day p.o.): 0%
% lowering dulcitol accumulation in vivo, L (lens) ([2]; 100 mg/kg/day p.o.): 0%

inhibition at 0.1 µM (aldose reductase): 69%
SMILES: COc1ccc2c(C(=NS(=O)(=O)C(F)(F)F)N(C)CC(=O)O)cccc2c1C(F)(F)F [Example 5, N-[[6-Methoxy-5-(trifluoromethyl)-1-naphthalenyl][[(trifluoromethyl)sulfonyl]imino]methyl]-N-methylglycine]
% lowering dulcitol accumulation in vivo, N (sciatic nerve) ([1]; 56 mg/kg/day p.o.): 0%
% lowering dulcitol accumulation in vivo, L (lens) ([2]; 56 mg/kg/day p.o.): 0%

SMILES: COc1ccc2c(C(=S)N(C)CC(=O)O)cccc2c1C(F)(F)F [tolrestat, N-[[6-methoxy-5-(trifluoromethyl)-1-naphthalenyl]thioxomethyl]-N-methylglycine, reference compound]
% lowering dulcitol accumulation in vivo, N (sciatic nerve) ([1]; 6.4 mg/kg/day p.o.): 50%
% lowering dulcitol accumulation in vivo, L (lens) ([2]; 6.4 mg/kg/day p.o.): 0%
